In ChEMBL document CHEMBL5729683, “Diazaindole derivative and use thereof as CHK1 inhibitor” (2023):

What was measured:
[1] = biological target: Serine/threonine-protein kinase Chk2 (Homo sapiens, UniProt O96017); assay: Activity Test of Compounds in the CHK1 Coupled Reaction System: The compounds of the present disclosure used in the experiments were self-prepared, and their chemical names and structural formulas were shown in the preparation embodiments of each compound. […] The test was carried out on the KinaseProfiler™ protein kinase activity detection platform of Eurofins, and the experimental results were provided by the company. […] A mixture solution of Mg2′ and ATP (adenosine triphosphate) was added to initiate the reaction and the reaction solution was incubated at room temperature for 40 min. 0.5% […] was added to terminate the reaction. […] The value was read with scintillation counting method after drying.
[2] = biological target: T1, Serine/threonine-protein kinase Chk1 (Homo sapiens, UniProt O14757); assay: Activity Test of Compounds in the CHK1 Coupled Reaction System: The compounds of the present disclosure used in the experiments were self-prepared, and their chemical names and structural formulas were shown in the preparation embodiments of each compound. The determination mixture containing embodiment compounds of the present disclosure and Chk1 and Chk2 kinases were incubated in a microtiter plate, and CHK1 inhibitor activity of compounds were tested by monitoring the phosphorylation of Chk1 and Chk2 kinases on a synthetic peptide substrate with a specific amino acid sequence ([…], SEQ ID NO: 1). The test was carried out on the KinaseProfiler™ protein kinase activity detection platform of Eurofins, and the experimental results were provided by the company. The procedure was as follows: Chk1 and Chk2 kinases were diluted with 20 mM MOPS (morpholinpropane sulfonic acid), 1 mM EDTA (ethylenediaminetetraacetic acid), 0.04% Brij-35, 5% glycerol, 0.1% 2-mercaptoethanol, 1 mg/mL BSA (bovine serum albumin) and added to the reaction system, and the reaction system contained the embodiment compounds, 8 mM MOPS pH 7.0, 0.2 mM EDTA, 200 sM polypeptide substrate ([…], SEQ ID NO: 1), 10 mM magnesium acetate and a certain concentration of [γ-33P]-ATP (the strength was about 500 cpm/pmol). A mixture solution of Mg2′ and ATP (adenosine triphosphate) was added to initiate the reaction and the reaction solution was incubated at room temperature for 40 min. 0.5% Phosphate buffer was added to terminate the reaction. 10 μL of the reaction solution was filtered four times on a continuous filter P30, washed three times with 0.425 phosphate buffer, and once with methanol, each wash for 4 min. The value was read with scintillation counting method after drying.
T1 sequence (O14757 whole entry): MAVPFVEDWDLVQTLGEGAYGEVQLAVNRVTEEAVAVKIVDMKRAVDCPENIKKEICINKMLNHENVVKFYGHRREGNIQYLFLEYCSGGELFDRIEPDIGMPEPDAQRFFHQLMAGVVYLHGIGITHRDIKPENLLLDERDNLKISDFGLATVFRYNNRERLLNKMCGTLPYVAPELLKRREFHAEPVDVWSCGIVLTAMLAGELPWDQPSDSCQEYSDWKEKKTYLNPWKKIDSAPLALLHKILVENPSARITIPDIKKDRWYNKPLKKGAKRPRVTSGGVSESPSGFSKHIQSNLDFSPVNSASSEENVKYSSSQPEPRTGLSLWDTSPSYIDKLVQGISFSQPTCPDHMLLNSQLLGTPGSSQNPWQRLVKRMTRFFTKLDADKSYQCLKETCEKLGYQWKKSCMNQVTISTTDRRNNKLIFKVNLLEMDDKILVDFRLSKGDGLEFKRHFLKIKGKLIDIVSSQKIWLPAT

Chain of Serine/threonine-protein kinase Chk2 (O96017 whole entry): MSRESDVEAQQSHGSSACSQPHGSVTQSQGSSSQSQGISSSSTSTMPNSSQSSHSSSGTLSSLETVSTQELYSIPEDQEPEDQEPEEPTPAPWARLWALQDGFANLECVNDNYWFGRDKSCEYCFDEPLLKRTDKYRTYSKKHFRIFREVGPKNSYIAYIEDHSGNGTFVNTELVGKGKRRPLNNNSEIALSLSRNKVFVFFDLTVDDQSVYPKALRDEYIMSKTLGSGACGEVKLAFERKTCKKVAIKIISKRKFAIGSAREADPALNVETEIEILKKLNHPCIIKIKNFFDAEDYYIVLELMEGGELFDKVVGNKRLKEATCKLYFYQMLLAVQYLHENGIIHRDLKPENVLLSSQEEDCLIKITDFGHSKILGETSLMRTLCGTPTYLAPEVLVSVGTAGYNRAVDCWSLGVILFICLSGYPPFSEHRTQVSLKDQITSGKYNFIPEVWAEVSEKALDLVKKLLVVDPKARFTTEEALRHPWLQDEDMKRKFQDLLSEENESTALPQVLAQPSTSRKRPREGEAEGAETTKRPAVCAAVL

| Compound | IC50 [1] | IC50 [2] |
| --- | --- | --- |
| COc1nc(C)ccc1-c1cc(Nc2cnc3c(F)cn(C4CCN(C)CC4)c3n2)n[nH]1 | 166 nM |  |
| COc1nc(C)ccc1-c1cc(Nc2cnc3c(F)cn(C4CCNCC4)c3n2)n[nH]1 | 28 nM |  |
| COc1cccc(F)c1-c1cc(Nc2cnc3c(F)cn(C4CCNCC4)c3n2)n[nH]1 | 2 nM | < 1 nM |
| COc1nc(C)ccc1-c1cc(Nc2cnc3ccn(C4CCNCC4)c3n2)n[nH]1 | 79 nM |  |
| COc1nc(C)ccc1-c1cc(Nc2cnc3ccn(C4CCN(C)CC4)c3n2)n[nH]1 | 257 nM |  |
| COc1cccc(F)c1-c1cc(Nc2cnc3ccn(C4CCNCC4)c3n2)n[nH]1 | 13 nM | in the range around 1 nM |
| COc1nc(C)ccc1-c1cc(Nc2cnc3ccn(CC4CCNCC4)c3n2)n[nH]1 | 1970 nM | 5 nM |
| COc1cccc(F)c1-c1[nH]nc(Nc2cnc3ccn(C4CCNCC4)c3n2)c1F | 24 nM | in the range around 2 nM |
